Measurements: US20100247707A1, “DIPEPTIDES AS FEED ADDITIVES” (EVONIK DEGUSSA GmbH, priority 2009, published 2010)

Experiments:
[1] = system: Litopenaeus vannamei; details: omnivorous shrimps Litopenaeus vannamei, Forster and Dominy 2006; cited from earlier work
[2] = system: ruminants; details: in ruminants, WO00/28835; cited from earlier work
[3] = system: digestive enzymes from mirror carp; assay: In vitro digestion of non-natural dipeptides LD-I / DL-II with digestive enzymes from mirror carp; type: in vitro ADME, Cyprinus carpio morpha noblis; details: for portion of dipeptide cleaved: after 5 hours, in vitro reaction conditions; for speed of cleavage / digestion: non-natural dipeptides
Procedure: (§1) For this, the enzymes were isolated from the digestive tracts of the fishes and shrimps. The chemically synthesized dipeptides L-EAA-D-Met (LD-I) and D-Met-L-EAA (DL-II) were then reacted with the enzyme solutions obtained. For better comparability of the digestibilities of dipeptides of various species, identical conditions were selected for the in vitro digestion studies (37° C., pH 9). All non-natural dipeptides L-EAA-D-Met (LD-I) and D-Met-L-EAA (DL-II) are cleaved by digestive enzymes of the omnivorous mirror carp (see FIG. 7), of the herbivorous grass carp (see FIG. 8), of the carnivorous rainbow trout (see FIG. 11), of the omnivorous whiteleg shrimp (see FIG. 10) and of the chicken (see FIG. 17). The cleavages of D-Met-L-EAA (DL-II) proceed somewhat more slowly than the cleavages of the analogous L-EAA-D-Met (LD-I) dipeptides. With digestive enzymes of the Tilapia (see FIG. 9), in contrast, D-Met-L-EAA (DL-II) could be cleaved more quickly than L-EAA-D-Met (LD-I) dipeptides. […] After just 5 hours, under in vitro reaction conditions the bulk of the lysine-containing dipeptides had been cleaved by all of the digestive enzymes used.
a) Isolation of the Digestive Enzymes from Mirror Carp (Cyprinus carpio morpha noblis)
The digestive enzymes were isolated according to the method of EID and MATTY (Aquaculture 1989, 79, 111-119). For this, the intestines were removed from five one-year-old mirror carp (Cyprinus carpio morpha noblis) and processed as described in Example 18.
(§2) b) Procedure for the In Vitro Digestion Studies
(§3) D-Met-L-EAA (DL-II) or L-EAA-D-Met (LD-I) was taken up in TRIS/HCl buffer solution and the enzyme solution was added. As comparison and to assess the rate of purely chemical cleavage, a blank without enzyme solution was prepared in each case (see Table 4). A sample was taken from time to time and its composition was detected and quantified by means of a calibrated HPLC. The conversion was determined as the quotient of the area of methionine and the area of D-Met-L-EAA (DL-II) or L-EAA-D-Met (LD-I) (see FIG. 7).

[4] = system: digestive enzymes from rainbow trout; assay: In vitro digestion of non-natural dipeptides LD-I / DL-II with digestive enzymes from rainbow trout; type: in vitro ADME, Oncorhynchus mykiss; details: for portion of dipeptide cleaved: after 5 hours, in vitro reaction conditions; for speed of cleavage / digestion: non-natural dipeptides
Procedure: as §1
a) Isolation of the Digestive Enzymes from Rainbow Trout (Oncorhynchus mykiss)
The digestive enzymes were isolated according to the method of EID and MATTY (Aquaculture 1989, 79, 111-119). For this, the intestines were removed from six one-year-old rainbow trout (Oncorhynchus mykiss) and processed as described in Example 18.
as §2
The in vitro investigations were carried out similarly to Example 19 (see Table 6, FIG. 11).

[5] = system: digestive enzymes from whiteleg shrimps; assay: In vitro digestion of non-natural dipeptides LD-I / DL-II with digestive enzymes from whiteleg shrimps; type: in vitro ADME, Litopenaeus vannamei; details: whiteleg shrimp enzymes; for portion of dipeptide cleaved: after 5 hours, in vitro reaction conditions; for speed of cleavage / digestion: non-natural dipeptides
Procedure: as §1
a) Isolation of the Digestive Enzymes from Whiteleg Shrimps (Litopenaeus vannamei)
The digestive enzymes were isolated according to the method of Ezquerra and Garcia-Carreno (J. Food Biochem. 1999, 23, 59-74). For this, the hepatopancreas was removed from five kilograms of whiteleg shrimps (Litopenaeus vannamei) and comminuted in a mixer together with crushed ice. Further processing was carried out similarly to Example 18.
as §2
The in vitro investigations were carried out similarly to Example 19 (see Table 8, FIG. 10).

[6] = system: digestive enzymes from chicken; assay: In vitro digestion of non-natural dipeptides LD-I / DL-II with digestive enzymes from chicken; type: in vitro ADME; details: for portion of dipeptide cleaved: after 5 hours, in vitro reaction conditions; for speed of cleavage / digestion: non-natural dipeptides
Procedure: as §1
a) Isolation of the Digestive Enzymes from Chicken
The digestive enzymes were isolated according to the method of EID and MATTY (Aquaculture 1989, 79, 111-119). For this, the intestines were removed from a chicken and processed as described in Example 24.
as §2
as §3, with “case.” for “case (see Table 4).”, “(see Table 10,” for “(see”, “17).” for “7).”

[7] = system: digestive enzymes of the herbivorous grass carp; assay: In vitro digestion of non-natural dipeptides LD-I / DL-II with digestive enzymes from grass carp; type: in vitro ADME; details: for portion of dipeptide cleaved: after 5 hours, in vitro reaction conditions; for speed of cleavage / digestion: non-natural dipeptides
Procedure: as §1

[8] = system: digestive enzymes of the Tilapia; assay: In vitro digestion of non-natural dipeptides LD-I / DL-II with digestive enzymes from Tilapia; type: in vitro ADME; details: for portion of dipeptide cleaved: after 5 hours, in vitro reaction conditions; for speed of cleavage / digestion: non-natural dipeptides
Procedure: as §1

Compound	effectiveness in feeding tests [1]	bioavailability [2]	portion of dipeptide cleaved [3]	speed of cleavage / digestion [3]	portion of dipeptide cleaved [4]	speed of cleavage / digestion [4]	portion of dipeptide cleaved [5]	speed of cleavage / digestion [5]	portion of dipeptide cleaved [6]	speed of cleavage / digestion [6]	portion of dipeptide cleaved [7]	speed of cleavage / digestion [7]	portion of dipeptide cleaved [8]	speed of cleavage / digestion [8]
CSCCC(N)C(=O)O (racemic) [DL-methionine]	equally as effective as L-methionine													
CSCCC(O)C(=O)OC(C)C (racemic) [HMBi, racemic iso-propyl ester of MHA]		at least 50%												
CSCC[C@@H](N)C(=O)N[C@@H](CCCCN)C(=O)O.Cl.Cl (racemic) [DL-IIe, D-Met-L-Lys×2HCl]			bulk	particularly quickly	bulk	particularly quickly	bulk	particularly quickly	bulk	particularly quickly	bulk	particularly quickly	bulk	particularly quickly
L-Lys-D-Met×2HCl [LD-Ie]			bulk	particularly quickly	bulk	particularly quickly	bulk	particularly quickly	bulk	particularly quickly	bulk	particularly quickly	bulk	particularly quickly
